Data on seven compounds can be found in ChEMBL document CHEMBL1201862, “PubChem BioAssay data set” (2004).

One assay has as its target Estrogen receptor beta (Homo sapiens, UniProt Q92731).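 Note: recombinant ER-beta bound to coactivator SRC1 peptide in presence of estradiol agonist; inhibitors block coactivator peptide binding and lower the FRET signal.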
The next assay addresses Large T antigen (Simian virus 40, UniProt P03070). It is filed as functional, Betapolyomavirus macacae.
Assay [1] deals with T1, Voltage-gated N-type calcium channel alpha-1B subunit/Amyloid beta A4 precursor protein-binding family A member 1 (Homo sapiens, UniProt Q00975+Q02410). It counts as protein assay.
T1 sequence (Q00975 whole entry): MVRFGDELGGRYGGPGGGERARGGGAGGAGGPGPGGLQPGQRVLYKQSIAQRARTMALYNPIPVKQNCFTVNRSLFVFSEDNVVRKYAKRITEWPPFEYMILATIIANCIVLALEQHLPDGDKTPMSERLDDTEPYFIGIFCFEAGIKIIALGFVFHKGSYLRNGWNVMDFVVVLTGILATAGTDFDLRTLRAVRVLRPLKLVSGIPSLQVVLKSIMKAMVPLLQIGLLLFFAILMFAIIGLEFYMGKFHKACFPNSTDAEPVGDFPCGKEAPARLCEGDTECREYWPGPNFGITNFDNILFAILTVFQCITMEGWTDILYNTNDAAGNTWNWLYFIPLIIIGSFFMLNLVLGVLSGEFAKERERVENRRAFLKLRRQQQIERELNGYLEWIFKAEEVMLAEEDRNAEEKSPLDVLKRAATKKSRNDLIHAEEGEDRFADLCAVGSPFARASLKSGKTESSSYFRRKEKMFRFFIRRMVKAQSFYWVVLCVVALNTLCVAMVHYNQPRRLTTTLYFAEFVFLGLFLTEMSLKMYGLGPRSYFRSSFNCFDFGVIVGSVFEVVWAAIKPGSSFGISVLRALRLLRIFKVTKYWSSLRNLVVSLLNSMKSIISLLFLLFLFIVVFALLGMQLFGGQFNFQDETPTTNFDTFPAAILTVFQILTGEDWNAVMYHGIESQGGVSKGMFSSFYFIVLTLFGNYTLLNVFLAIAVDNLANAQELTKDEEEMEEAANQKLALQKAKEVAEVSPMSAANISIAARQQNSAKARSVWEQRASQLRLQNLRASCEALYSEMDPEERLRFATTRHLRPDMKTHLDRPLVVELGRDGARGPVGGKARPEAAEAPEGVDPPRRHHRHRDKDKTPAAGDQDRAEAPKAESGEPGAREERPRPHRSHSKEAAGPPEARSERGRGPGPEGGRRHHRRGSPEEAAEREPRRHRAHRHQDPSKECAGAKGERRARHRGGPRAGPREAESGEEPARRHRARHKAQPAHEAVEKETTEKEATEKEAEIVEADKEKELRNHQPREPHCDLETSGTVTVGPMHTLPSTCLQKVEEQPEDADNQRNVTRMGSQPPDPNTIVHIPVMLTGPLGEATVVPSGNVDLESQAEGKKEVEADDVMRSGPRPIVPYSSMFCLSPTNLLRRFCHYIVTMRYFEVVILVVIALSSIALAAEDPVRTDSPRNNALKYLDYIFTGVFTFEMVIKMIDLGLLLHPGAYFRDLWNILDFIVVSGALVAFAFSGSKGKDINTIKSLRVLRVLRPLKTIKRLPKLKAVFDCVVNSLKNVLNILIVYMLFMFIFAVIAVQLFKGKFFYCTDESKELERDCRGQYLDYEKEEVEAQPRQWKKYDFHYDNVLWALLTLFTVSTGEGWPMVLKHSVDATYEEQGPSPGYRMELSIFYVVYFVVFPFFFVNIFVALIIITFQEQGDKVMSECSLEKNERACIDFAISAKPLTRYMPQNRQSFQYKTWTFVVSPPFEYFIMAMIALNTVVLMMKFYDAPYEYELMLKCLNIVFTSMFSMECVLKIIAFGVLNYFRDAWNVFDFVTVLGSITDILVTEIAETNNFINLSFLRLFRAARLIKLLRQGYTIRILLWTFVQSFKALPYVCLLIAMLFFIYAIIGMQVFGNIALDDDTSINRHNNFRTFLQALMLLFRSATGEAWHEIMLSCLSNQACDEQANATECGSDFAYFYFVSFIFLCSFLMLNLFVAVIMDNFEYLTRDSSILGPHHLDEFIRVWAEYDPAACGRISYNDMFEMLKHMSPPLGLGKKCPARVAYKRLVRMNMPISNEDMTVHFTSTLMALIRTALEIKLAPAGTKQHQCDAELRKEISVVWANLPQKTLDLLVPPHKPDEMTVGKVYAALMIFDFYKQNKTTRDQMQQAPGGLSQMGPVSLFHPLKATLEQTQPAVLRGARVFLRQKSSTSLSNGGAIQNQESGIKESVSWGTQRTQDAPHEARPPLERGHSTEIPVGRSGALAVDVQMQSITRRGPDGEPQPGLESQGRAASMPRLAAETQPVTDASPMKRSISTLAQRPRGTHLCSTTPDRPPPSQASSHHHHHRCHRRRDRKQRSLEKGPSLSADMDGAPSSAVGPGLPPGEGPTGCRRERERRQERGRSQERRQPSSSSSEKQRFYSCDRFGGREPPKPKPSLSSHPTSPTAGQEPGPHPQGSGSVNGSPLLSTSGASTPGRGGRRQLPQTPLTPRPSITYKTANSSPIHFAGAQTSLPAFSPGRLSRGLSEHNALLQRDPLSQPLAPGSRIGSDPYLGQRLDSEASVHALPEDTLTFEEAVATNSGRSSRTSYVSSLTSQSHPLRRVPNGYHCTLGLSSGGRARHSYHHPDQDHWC
T1 sequence (Q02410 whole entry): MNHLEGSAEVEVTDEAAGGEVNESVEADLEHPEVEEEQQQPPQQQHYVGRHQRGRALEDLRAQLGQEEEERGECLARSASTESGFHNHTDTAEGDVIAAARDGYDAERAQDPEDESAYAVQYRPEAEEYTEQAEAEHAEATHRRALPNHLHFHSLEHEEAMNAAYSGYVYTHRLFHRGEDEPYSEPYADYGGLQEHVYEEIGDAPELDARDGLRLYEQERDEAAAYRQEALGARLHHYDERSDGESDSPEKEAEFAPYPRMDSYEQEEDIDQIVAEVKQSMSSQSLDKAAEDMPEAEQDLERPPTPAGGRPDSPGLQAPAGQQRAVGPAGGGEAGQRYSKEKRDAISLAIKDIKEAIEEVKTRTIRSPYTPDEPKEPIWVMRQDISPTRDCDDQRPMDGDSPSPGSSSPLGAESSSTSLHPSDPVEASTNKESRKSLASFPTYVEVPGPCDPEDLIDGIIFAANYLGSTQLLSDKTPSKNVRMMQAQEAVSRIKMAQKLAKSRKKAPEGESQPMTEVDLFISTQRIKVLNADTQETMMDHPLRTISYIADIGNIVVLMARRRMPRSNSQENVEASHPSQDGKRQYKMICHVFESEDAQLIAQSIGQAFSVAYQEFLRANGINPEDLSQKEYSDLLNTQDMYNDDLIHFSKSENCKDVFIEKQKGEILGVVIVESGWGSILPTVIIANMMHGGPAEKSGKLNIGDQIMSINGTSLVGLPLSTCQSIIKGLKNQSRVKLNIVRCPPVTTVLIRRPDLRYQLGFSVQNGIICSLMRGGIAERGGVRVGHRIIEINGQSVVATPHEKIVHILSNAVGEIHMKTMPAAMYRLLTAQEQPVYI
A further assay has as its target Bcl-2-like protein 1 (Homo sapiens, UniProt Q07817). Kind of assay: blockers of BCLXL peptide binding – biochemical, fluorescence polarization, 1536-well, selectivity assay for MCL1 inhibitor project, dose response (AID 2218). A general note: Fluorescence polarisation rises when a labelled molecule tumbles more slowly, as on binding a larger partner.
Another assay addresses T2, Estrogen receptor (Homo sapiens, UniProt P03372).
T2 sequence (P03372 whole entry): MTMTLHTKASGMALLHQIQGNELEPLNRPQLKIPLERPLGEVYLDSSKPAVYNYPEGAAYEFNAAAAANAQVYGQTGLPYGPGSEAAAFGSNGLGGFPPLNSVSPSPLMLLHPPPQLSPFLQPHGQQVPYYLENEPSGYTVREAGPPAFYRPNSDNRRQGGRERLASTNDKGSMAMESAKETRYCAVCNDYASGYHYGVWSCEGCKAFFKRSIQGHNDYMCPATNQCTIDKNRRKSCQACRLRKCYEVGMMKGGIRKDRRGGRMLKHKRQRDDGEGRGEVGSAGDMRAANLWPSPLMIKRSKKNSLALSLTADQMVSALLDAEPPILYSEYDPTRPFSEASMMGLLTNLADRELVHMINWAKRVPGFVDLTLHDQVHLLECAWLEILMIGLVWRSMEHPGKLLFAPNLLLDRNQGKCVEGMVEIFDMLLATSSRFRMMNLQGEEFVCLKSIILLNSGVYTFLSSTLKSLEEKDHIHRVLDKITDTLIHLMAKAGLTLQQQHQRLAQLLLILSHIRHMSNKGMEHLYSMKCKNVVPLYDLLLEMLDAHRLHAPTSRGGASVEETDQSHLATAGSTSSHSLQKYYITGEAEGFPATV

Assay [2] has as its target Induced myeloid leukemia cell differentiation protein Mcl-1 (Homo sapiens, UniProt Q07820). Kind of assay: blockers of MCL1 binding to BIM peptide – biochemical, fluorescence polarization, BIM-BH3 peptide, 1536-well, dose response (AID 2217).
The target of assay [3] is T1, Voltage-gated N-type calcium channel alpha-1B subunit/Amyloid beta A4 precursor protein-binding family A member 1. It is filed as protein assay. The source holds these as a separate data set.
For the next assay, the target named is NADPH oxidase 1 (Homo sapiens, UniProt Q9Y5S8). It counts as functional, cell-based.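 Note: Cell-based assay with luminescence read-out, IC50 derived from inhibitor dose-response curves; intracellular ROS from endogenous NOX1 in intact HT29 colon cancer cells; potency of inhibitors that lower the ROS luminescence signal.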
A short description of assay [4]: M. tuberculosis H37Rv growth inhibitors, H37Rv strain (AID 1626). It counts as functional.
Assay [5] has as its target Sphingosine 1-phosphate receptor 2 (Homo sapiens, UniProt O95136). As to the kind of experiment: Dose Response Cell Based Assay for Agonists of the S1P2 Receptor of Purchased Analogues. [Related pubchem assays: 729, 843, 854, 736 ]. It is filed as functional.
Assay [6] addresses Mothers against decapentaplegic homolog 3 (Homo sapiens, UniProt P84022). As to the kind of experiment: inhibitors of SMAD-driven TGF-beta signaling – dose response (AID 715). It is filed as functional.
The target in the next assay is Vasopressin V1a receptor (Homo sapiens, UniProt P37288). As to the kind of experiment: Fluorescence-based cell-based high throughput dose response screening assay for agonists of the vasopressin 1 receptor (V1R). It counts as functional.
In another assay the target is Oxytocin receptor (Homo sapiens, UniProt P30559). Kind of assay: Counterscreen for vasopressin 1 receptor (V1R) agonists: Fluorescence-based cell-based high throughput dose response assay for agonists of the Oxytocin Receptor (OXTR). [Related pubchem assays: 2435 (Primary screen (OXTR agonists in singlicate)), 434964 (Confirmation screen (V1R agonists in triplicate)), 434969 (Counterscreen (OXTR agonists in …. It counts as functional. Background: The purpose of a counterscreen is to sort out artefacts and off-target activity.
Chain of Oxytocin receptor (P30559 whole entry): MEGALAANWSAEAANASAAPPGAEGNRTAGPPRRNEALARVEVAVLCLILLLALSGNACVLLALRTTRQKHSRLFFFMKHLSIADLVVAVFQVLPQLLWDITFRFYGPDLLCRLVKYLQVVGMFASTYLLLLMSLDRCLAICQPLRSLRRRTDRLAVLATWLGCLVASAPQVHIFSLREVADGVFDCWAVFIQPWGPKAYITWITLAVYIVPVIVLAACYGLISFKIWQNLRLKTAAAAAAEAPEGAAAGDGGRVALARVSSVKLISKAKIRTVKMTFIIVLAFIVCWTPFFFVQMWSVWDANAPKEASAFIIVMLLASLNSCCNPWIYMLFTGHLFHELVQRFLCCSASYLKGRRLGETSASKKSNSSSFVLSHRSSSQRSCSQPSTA

A short description of assay [7]: HEK-293T cell viability reduction – luminescence, B-cell screen hits, cytotoxicity control for BCR NF-kB inhibitor project, dose response (AID 489021).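 Note: HEK-293T cells carrying an NF-kB luciferase reporter; cells exposed to compound for about 14 hours before viability readout.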 It is filed as functional, cell-based.
The target of assay [8] is Lytic switch protein BZLF1 (Epstein-Barr virus (strain B95-8) (HHV-4) (Human herpesvirus 4), UniProt P03206). Kind of assay: inhibition of BZLF1 ZTA DNA binding – biochemical, fluorescence polarization, Epstein-Barr virus, 1536-well, counter-screen for EBNA-1 inhibitor project, dose response (AID 2377).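 Note: fluorescence polarization of Cy5-labelled ZRE DNA probe bound by purified Zta.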 Also noted: species or system human gammaherpesvirus 4.
Assay [9] addresses Epstein-Barr nuclear antigen 1 (Epstein-Barr virus (strain B95-8) (HHV-4) (Human herpesvirus 4), UniProt P03211). As to the kind of experiment: inhibition of EBV nuclear antigen 1 DNA binding – biochemical, fluorescence polarization, 1536-well, dose response (AID 2381).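 Note: fluorescence polarization of a Cy5 DNA probe bound by EBNA-1 protein.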 Also on record: species or system human gammaherpesvirus 4.

Activity calls are given as the source filed them. A value given as a limit tells only on which side of the number the result lay.

Chain of Large T antigen (P03070 whole entry): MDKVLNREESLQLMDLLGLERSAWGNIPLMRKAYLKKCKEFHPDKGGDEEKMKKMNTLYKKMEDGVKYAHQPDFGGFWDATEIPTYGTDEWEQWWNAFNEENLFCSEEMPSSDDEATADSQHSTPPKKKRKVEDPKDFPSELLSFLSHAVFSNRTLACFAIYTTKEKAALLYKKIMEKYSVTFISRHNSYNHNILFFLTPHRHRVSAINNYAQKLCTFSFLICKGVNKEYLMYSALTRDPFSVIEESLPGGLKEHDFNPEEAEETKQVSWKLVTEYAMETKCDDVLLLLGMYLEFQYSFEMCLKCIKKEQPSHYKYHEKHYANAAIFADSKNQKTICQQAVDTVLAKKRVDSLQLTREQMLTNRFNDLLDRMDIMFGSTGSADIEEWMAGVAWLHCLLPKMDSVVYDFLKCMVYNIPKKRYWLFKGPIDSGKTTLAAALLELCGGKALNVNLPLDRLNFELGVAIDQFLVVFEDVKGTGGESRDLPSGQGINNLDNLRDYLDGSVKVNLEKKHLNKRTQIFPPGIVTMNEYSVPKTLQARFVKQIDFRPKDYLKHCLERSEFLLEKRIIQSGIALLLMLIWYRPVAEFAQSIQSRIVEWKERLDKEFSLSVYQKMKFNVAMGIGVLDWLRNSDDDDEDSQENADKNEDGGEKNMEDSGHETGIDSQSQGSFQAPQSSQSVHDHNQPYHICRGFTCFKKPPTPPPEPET
Chain of Sphingosine 1-phosphate receptor 2 (O95136 whole entry): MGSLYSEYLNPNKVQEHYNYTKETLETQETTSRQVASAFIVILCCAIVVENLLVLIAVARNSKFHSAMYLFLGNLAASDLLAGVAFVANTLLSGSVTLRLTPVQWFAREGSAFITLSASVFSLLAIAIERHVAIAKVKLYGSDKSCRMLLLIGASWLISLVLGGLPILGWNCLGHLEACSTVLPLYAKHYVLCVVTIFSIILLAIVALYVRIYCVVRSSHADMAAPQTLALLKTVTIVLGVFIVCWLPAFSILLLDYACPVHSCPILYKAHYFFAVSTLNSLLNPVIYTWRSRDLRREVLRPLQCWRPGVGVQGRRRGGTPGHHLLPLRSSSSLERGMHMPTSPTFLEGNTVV
Chain of Induced myeloid leukemia cell differentiation protein Mcl-1 (Q07820 whole entry): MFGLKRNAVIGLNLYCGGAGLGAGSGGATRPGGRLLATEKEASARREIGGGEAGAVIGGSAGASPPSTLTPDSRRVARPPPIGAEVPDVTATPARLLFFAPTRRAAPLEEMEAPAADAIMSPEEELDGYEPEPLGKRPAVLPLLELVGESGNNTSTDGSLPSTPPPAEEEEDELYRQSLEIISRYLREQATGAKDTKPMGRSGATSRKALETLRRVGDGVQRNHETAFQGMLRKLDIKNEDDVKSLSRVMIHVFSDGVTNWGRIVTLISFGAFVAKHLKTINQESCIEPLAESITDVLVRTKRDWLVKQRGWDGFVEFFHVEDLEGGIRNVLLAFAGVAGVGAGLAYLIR

On to `CCOc1ccc(N2CSC3=C(C#N)C(c4ccco4)CC(=O)N3C2)cc1` (stereo unspecified), for which the IC50 against Estrogen receptor beta was > 50 µM (not active); at Large T antigen, 13.8 µM (active); in assay [1], 21.6 µM (active); at Bcl-2-like protein 1, > 109 µM (not active); against Estrogen receptor, > 50 µM (not active); in assay [2], > 109 µM (not active). Also, in assay [3], the IC50 is 9.68 µM (active).

Take `COc1ccc(-c2nc(-c3ccccc3)c(-c3ccccc3)[nH]2)cc1OC`: the IC50 on NADPH oxidase 1 was > 17 µM (not active).

As to `COc1ccc(OCCCC(=O)Nc2cccc(SC)c2)cc1`, the IC50 in [4] was > 100 µM (active).

Consider `CCOC(=O)c1cc(C)n(Cc2ccccc2)c1C`, for which the EC50 in assay [5] is given as > 30 µM (not active).

Take `Cc1cccc(CSc2nc3c(cc2C#N)CCC3)c1`: the IC50 in assay [6] was 18.5 µM (active).

Regarding `CC(NC(=O)Nc1ccc([N+](=O)[O-])cc1)C(c1ccccc1)N1CCOCC1` (stereo unspecified), the EC50 is 4.67 µM (active) at Vasopressin V1a receptor and > 29.9 µM (not active) on Oxytocin receptor.

For the compound `COc1ccc(C(=O)Nc2nnc(Cc3cccs3)s2)cc1OC`, the IC50 in assay [7] is > 80 µM (inactive); in assay [8], > 111 µM (not active); in [9], 41.5 µM (not active).

In general, IC50 refers to the concentration at which inhibition is half-maximal. The EC50 is the concentration that produces a half-maximal response.
